# Data taken from patent publication US9241891B2, “Personal care compositions comprising self-assembling peptides” (The Procter & Gamble Company, priority 2012, dated 2016).
# Like-named read-outs stand apart in the source and are kept apart here.
# Test system: CLAUDIN 1
# Details: human keratinocytes
# Procedure: Cultures of human keratinocytes are treated with two concentrations of solutions, of the hexadecapeptide PuraMatrix™ (supplied by BD Science). The lower concentration, which is below the estimated critical aggregation concentration (CAC) at which the RADA-16I (SEQ ID NO:1) monomer self-assembles, while the higher concentration is above the CAC.
sequence,measurement,setting,value
RADARADARADARADA [PuraMatrix ™],CLDN1 LEVEL,"High Concentration, above the CAC",1.39
same,CLDN1 LEVEL,"Low Concentration, below the estimated critical aggregation concentration (CAC)",1.09
same,CLAUDIN 1 regulation (in words),"higher concentration, above the estimated critical aggregation concentration",significantly upregulates
